{
  "source": "patent US20090270395A1",
  "about": "“EP4 Receptor Agonist, Compositions and Methods Thereof” (priority 2005, published 2009)",
  "key": {"[1]": {"test": "ocular tolerability in rabbits, topical ophthalmic solution", "type": "in vivo, rabbits (New Zealand white rabbits)", "description": "Drug concentrations are expressed in terms of the active ingredient (base). The compounds of this invention are dissolved in a suitable ophthalmic solution (e.g., 0.5% Polysorbate-80, 0.02% benzalkonium chloride, 0.1% EDTA, 4.5% mannitol in 5 mM citrate) at 22, 2.2 and 0.22 μM for rabbit study and 111, 33, 11, and 1.1 μM for monkey studies. Drug or vehicle aliquots (25 ul) are administered topically unilaterally or bilaterally. In unilateral applications, the contralateral eyes receive an equal volume of vehicle. Proparacaine (0.5%) is applied to the cornea prior to tonometry to minimize discomfort. Intraocular pressure (IOP) is recorded using a pneumatic tonometer (Alcon Applanation Pneumatonograph) or equivalent."}, "[2]": {"test": "ocular tolerability in cynomolgus monkeys", "type": "in vivo", "conditions": "compared to compounds disclosed in WO 2004/085430 (Example 2)"}, "[3]": {"test_system": "ROS 17/2.8 rat osteosarcoma cells", "test": "effect on intracellular cAMP in ROS 17/2.8 cells", "type": "cell-based", "description": "(§1) RCT-1 and RCT-3 are clonal cell lines immortalized by SV-40 large T antigen from cells released from fetal rat calvair by a combination collagenase/hyaluronidase digestion. RCT-1 cells, derived from cells released during the first 10 minutes of digestion (fraction I), are cultured in RPMI 1640 medium (BRL) with 10% fetal bovine serum and 0.4 mg/ml G418 (BRL). These cells differentiate and express osteoblastic features upon retinoic acid treatment. RCT-3 cells, immortalized from osteoblast-enriched fraction III cells, are cultured in F-12 medium (BRL) with 5% Fetal bovine serum and 0.4 mg/ml G418. TRAB-11 cells are also immortalized by SV40 large T antigen from adult rat tibia and are cultured in RPMI 1640 medium with 10% FBS and 0.4 mg/ml G418. ROS 17/2.8 rat osteosarcoma cells are cultured in F-12 containing 5% FBS. Osteoblast-enriched (fraction III) primary fetal rat calvaria cells are obtained by collagenase/hyaluronidase digestion of calvariae of 19 day-old rat fetuses. See Rodan et al., Growth stimulation of rat calvaria osteoblastic cells by acidic FGF, Endocrinology, 121, 1919-1923 (1987), which is incorporated by reference herein in its entirety. Cells are released during 30-50 minutes digestion (fraction […]) and are cultured in F-12 medium containing 5% FBS. […]"}, "[4]": {"test_system": "RCT-3 cells", "test": "effect on intracellular cAMP in RCT-3 cells", "type": "cell-based, rat", "description": "as §1"}, "[5]": {"test_system": "TRAB-11 cells", "test": "effect on intracellular cAMP in TRAB-11 cells", "type": "cell-based, rat", "description": "as §1"}, "[6]": {"test_system": "EP4 mRNA in RP-1 periosteal cells", "test": "EP4 mRNA expression (Northern blot) in RP-1 periosteal cells", "type": "cell-based, rat", "conditions": "10^−6 M", "description": "(§2) RP-1 periosteal cells are spontaneously immortalized from primary cultures of periosteal cells from tibae of 4-week old Sprague-Dawley rats and are cultured in DMEM (BRL, Gaithersburg, Md.) with 10% fetal bovine serum (JRH Biosciences, Lenexa, Kans.).\n(§3) Total RNA is extracted from the tibial metaphysis or diaphysis and calvaria using a guanidinium isothiocyanate-phenol-chloroform method after pulverizing frozen bone samples by a tissue homogenizer. See P. Chomczynski et al., Single-step method of RNA isolation by acid guanidium thiocyanate-phenol-chloroform extraction., Analyt Biochem, 162, 156-159 (1987), which is incorporated by reference herein in its entirety. RNA samples ([…]) are separated on 0.9% agarose/formaldehyde gels and transferred onto nylon membranes (Boehringer Mannheim, Germany). Membranes are prehybridized in Hybrisol I (Oncor, Gaithersburg, Md.) and 0.5 mg/ml sonicated salmon sperm DNA (Boehringer) at 42° C. for 3 hours and are hybridized at 42° C. with rat EP2 and mouse EP4 cDNA probes labeled with [^32P]-dCTP (Amersham, Buckinghamshire, UK) by random priming using the rediprime kit (Amersham). After hybridization, membranes are washed 4 times in 2×SSC+0.1% SDS at room temperature for a total of 1 hour and once with 0.2×SSC+0.1% SDS at 55° C. for 1 hour and then exposed to Kodak XAR 2 film at −70° C. using intensifying screens. […]"}, "[7]": {"test_system": "EP4 mRNA in RCT-3 cells", "test": "EP4 mRNA expression (Northern blot) in RCT-3 cells", "type": "cell-based, rat", "description": "as §1"}, "[8]": {"test_system": "EP2 mRNA in RP-1 cells", "test": "EP2 mRNA expression (Northern blot) in RP-1 cells", "type": "cell-based, rat", "description": "as §2, §3"}, "[9]": {"test_system": "EP4 mRNA in bone tissue", "test": "EP4 mRNA levels in bone tissue of rats after systemic injection (Northern blot)", "type": "in vivo, rat", "conditions": "five-week-old male rats; 3-6 mg/Kg injected", "source_text": "For mRNA localization experiments, 5-week old Sprague-Dawley rats (Charles River) are euthanized by CO2, their tibiae and calvariae are excised, cleaned of soft tissues and frozen immediately in liquid nitrogen. […] Animals are euthanized at several time points post-injection and their tibiae and calvariae, as well as samples from lung and kidney tissues are frozen in liquid nitrogen.\nas §3, with “(Amersham).” for “(Amersham). After hybridization, membranes are washed 4 times in 2×SSC+0.1% SDS at room temperature for a total of 1 hour and once with 0.2×SSC+0.1% SDS at 55° C. for 1 hour and then exposed to Kodak XAR 2 film at −70° C. using intensifying screens.”"}, "[10]": {"test_system": "EP2 mRNA in bone tissue", "test": "EP2 mRNA in bone tissue of rats after systemic injection (Northern blot)", "type": "in vivo, rat", "conditions": "3-6 mg/Kg injected", "description": "(§4) For mRNA localization experiments, 5-week old Sprague-Dawley rats (Charles River) are euthanized by CO2, their tibiae and calvariae are excised, cleaned of soft tissues and frozen immediately in liquid nitrogen. For EP4 regulation experiments, 6-week old rats are given a single injection of either vehicle (7% ethanol in sterile water) or an anabolic dose of PGE2 (Cayman Chemical, Ann Arbor, Mich.), 3-6 mg/kg in the same vehicle) intraperitoneally. Animals are euthanized at several time points post-injection and their tibiae and calvariae, as well as samples from lung and kidney tissues are frozen in liquid nitrogen.\nTotal RNA is extracted from the tibial metaphysis or diaphysis and calvaria using a guanidinium isothiocyanate-phenol-chloroform method after pulverizing frozen bone samples by a tissue homogenizer. See P. Chomczynski et al., Single-step method of RNA isolation by acid guanidium thiocyanate-phenol-chloroform extraction., Analyt Biochem, 162, 156-159 (1987), which is incorporated by reference herein in its entirety. RNA samples ([…]) are separated on 0.9% agarose/formaldehyde gels and transferred onto nylon membranes (Boehringer Mannheim, Germany). […]"}, "[11]": {"test_system": "EP4 expression in bone marrow cells", "test": "localization of EP4 mRNA expression in bone tissue by in situ hybridization", "type": "in vivo, rat", "conditions": "rats, single anabolic dose", "description": "as §4\nFrozen tibiae are sectioned coronally at […] thickness and sections are mounted on charged slides (Probe On Plus, Fisher Scientific, Springfield, N.J.) and are kept at −70° C. until hybridization. cRNA probes are labeled with ^35S-UTPgS (ICN, Costa Mesa, Calif.) using a Riboprobe II kit (Promega Madison, Wis.). Hybridization is performed overnight at 50° C. […]\nIn situ hybridization is used in order to localize cells expressing EP4 in bone. In control experiment (vehicle-injected) rats, low expression of EP4 is detected in bone marrow cells. […]"}},
  "data": [
    {"smiles": "CC(C)OC(=O)c1ccc(CCN2C(=O)OCC[C@@H]2/C=C/[C@@H](O)C(F)(F)c2cccc(Br)c2)cc1", "note": "[Example 1, isopropyl 4-(2-{(4R)-4-[(1E,3R)-4-(3-bromophenyl)-4,4-difluoro-3-hydroxybut-1-en-1-yl]-2-oxo-1,3-oxazinan-3-yl}ethyl)benzoate]", "values": [
      {"measurement": "ocular tolerability", "setting": "[1]; rabbits, compared to compounds disclosed in WO 2004/085430 (Example 2)", "result": "improved ocular tolerability"},
      {"measurement": "ocular tolerability", "setting": "[2]", "result": "improved ocular tolerability"}
    ]},
    {"smiles": "CC(C)OC(=O)c1ccc(CCN2C(=O)OCC[C@@H]2CC[C@@H](O)C(F)(F)c2cccc(Br)c2)cc1", "note": "[Example 3, isopropyl 4-(2-{(4S)-4-[(3R)-4-(3-bromophenyl)-4,4-difluoro-3-hydroxybutyl]-2-oxo-1,3-oxazinan-3-yl}ethyl)benzoate]", "values": [
      {"measurement": "drug treatment related ocular adverse effects (eye closure)", "setting": "[1]; New Zealand white rabbits, single dose, topical, unilateral, 2.2 μM (25 μL) ophthalmic solution, vehicle panel-controlled", "result": "very slight drug treatment related ocular adverse effects (eye closure)"}
    ]},
    {"smiles": "CCCCC[C@H](O)/C=C/[C@H]1[C@H](O)CC(=O)[C@@H]1C/C=C\\CCCC(=O)O", "note": "[PGE2]", "values": [
      {"measurement": "effect on intracellular cAMP", "setting": "[3]", "result": "no effect"},
      {"measurement": "effect on intracellular cAMP", "setting": "[4]", "result": "markedly induced"},
      {"measurement": "effect on intracellular cAMP", "setting": "[5]", "result": "markedly induced"},
      {"measurement": "effect on EP4 mRNA levels", "setting": "[6]", "result": "rapidly increases EP4 mRNA levels"},
      {"measurement": "time of peak EP4 mRNA levels after treatment", "setting": "[6]", "result": 2, "unit": "h"},
      {"measurement": "effect on EP4 mRNA levels", "setting": "[7]", "result": "no effect"},
      {"measurement": "EP2 mRNA expression before or after treatment", "setting": "[8]", "result": "not expressed"},
      {"measurement": "effect on EP4 mRNA levels in the tibial diaphysis", "setting": "[9]", "result": "rapidly increased EP4 mRNA levels"},
      {"measurement": "time of peak EP4 mRNA levels in the tibial diaphysis after injection", "setting": "[9]", "result": 2, "unit": "h"},
      {"measurement": "induction of EP2 mRNA in bone tissue", "setting": "[10]", "result": "does not induce EP2 mRNA"},
      {"measurement": "expression of EP4 in bone marrow cells", "setting": "[11]", "result": "increased the expression of EP4 in bone marrow cells"}
    ]}
  ]
}
